Non-standard residues stand in square brackets, D forms with d. Residues, ends and D or L forms follow the SMILES beside them. No end group written: not given here. 1Nal = N[C@@H](Cc1cccc2ccccc12)C(=O)O; Aib = CC(C)(N)C(=O)O
Tests used:
[1] = biological target: T1, LCAT (purified from human plasma) (Homo sapiens, UniProt P04180); experiment: LCAT activation assay; format: biochemical; settings: LCAT activation as compared with native human ApoA-I (= 100%), equivalent masses
T1 construct: from tissue; host or cells: human plasma
T1 sequence (P04180 25-440): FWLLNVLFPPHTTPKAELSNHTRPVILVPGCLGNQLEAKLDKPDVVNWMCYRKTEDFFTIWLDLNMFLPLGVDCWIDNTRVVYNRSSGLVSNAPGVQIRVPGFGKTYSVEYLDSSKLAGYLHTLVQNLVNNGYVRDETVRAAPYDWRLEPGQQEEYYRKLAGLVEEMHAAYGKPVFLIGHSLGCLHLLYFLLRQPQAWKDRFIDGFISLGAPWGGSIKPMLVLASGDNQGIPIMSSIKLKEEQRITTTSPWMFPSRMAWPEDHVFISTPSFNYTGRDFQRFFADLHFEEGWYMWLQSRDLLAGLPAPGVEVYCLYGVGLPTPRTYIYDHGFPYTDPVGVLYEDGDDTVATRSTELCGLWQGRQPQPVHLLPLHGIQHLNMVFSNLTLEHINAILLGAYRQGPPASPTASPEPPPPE
Method in brief: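 Activity was expressed as percentage conversion of radiolabelled cholesterol to cholesteryl ester, normalised to native ApoA-I as 100%. LCAT purified from human plasma was added to peptide-preincubated EPC or POPC/cholesterol (20:1) small unilamellar vesicles at pH 7.4. Specific activity is the peptide concentration reaching the conversion plateau at a fixed timepoint.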

[2] = Circular dichroism helicity determination; format: physicochemical; settings: percent helicity; for He (%) TFE: 5 μM peptide, 90% vol TFE; for He (%) TFE / He (%) SUVs: 37° C.; for He (%) free: unbound peptide 5 μM in 5 mM phosphate buffer, pH 7.4, 37° C.; for He (%) SUVs: peptide-SUV complexes (20:1 EPC:Chol., Ri=30 and Ri=50); for He (%) mics: peptide-micelle complexes, Ri=100, 37° C.
Experimental: Far UV circular dichroism spectra were recorded between 190 and 260 nm (in 0.5 nm or 0.2 nm increments) with a AVIV62DS spectrometer (AVIV Associates, Lakewood, N.J., USA) equipped with a thermoelectric cell holder and sample changer. The instrument was calibrated with (+)-10-[…]. Between one and three scans were collected for each sample, using 10 cm, 5 cm, 1 cm and 0.1 cm path length quartz Suprasil cells, respectively, for peptide concentrations of 10^−7 M to 10^−4 M. The bandwidth was fixed at 1.5 nm and the scan speed to 1s per wavelength step. The reported data are the mean of at least 2 or 3 independent measurements.
After background substraction, spectra were converted to molar ellipticity (θ) per residue in deg. […] dmol^−1. The peptide concentration was determined by amino acid analysis and also by absorption spectrometry on a Perkin Elmer Lambda 17 UV/Visible spectrophotometer when the peptide contained a chromophore (tryptophane, dansyl, naphtylalanine).
CD spectra were obtained with free, unbound peptide (5 μM in 5 mM phosphate buffer, pH 7.4); with peptide-SUV complexes (20:1 EPC:Chol., Ri=30 and Ri=50); with peptide-micelle complexes (1-myristoyl-2-hydroxy-sn-glycero-3-phosphatidyl choline, Ri=100); and with free, unbound peptide in the presence of 2,2,2-trifluoroethanol (TFE) (5 μM peptide, 90% vol TFE).
The SUVs were obtained by dispersing the lipids (10 mM, 20:1 EPC:Chol., Avanti Polar Lipids, AL) in phosphate buffer (5 mM, pH 7.4) with bubbling N2 for 5 min., followed by sonication (1.5 hr.) in a bath sonicator. The homogeneity of the preparation was checked by FPLC.
The micelles were obtained by dispersing the lipid (6 mM 1-myristoyl-2-hydroxy-sn-glycero-3-phosphatidyl choline, Avanti Polar Lipids, AL) in phosphate buffer (5 mM, pH 7.4) with bubbling N2 for 5 min., followed by vortexing.
To obtain the peptide-SUV complexes, SUVs were added to the peptide (5 μM in 5 mM phosphate buffer, pH 7.4) at a phospholipid-peptide molar ratio (Ri) of 30 or 50.
To obtain the peptide-micelle complexes, micelles were added to the peptide (5 μM in 5 mM phosphate buffer, pH 7.4) at a Ri of 100.
All spectra were recorded at 37° C.
The degree of helicity of the peptides in the various conditions was determined from the mean residue ellipticity at 222 nm (Chen et al., 1974, Biochemistry 13:3350-3359) or by comparing the CD spectra obtained to reference spectra available on databases (16 helical reference spectra from Provencher & Glockner, 1981, Biochemistry 20:33-37; denatured protein reference spectra from Venyaminov et al., 1993, Anal. Biochem. 214:17-24) using the CONTIN curve-fitting algorithm version 2DP, CD-1 pack (August 1982) (Provencher, 1982, Comput. Phys. Commun. 27:213-227, 229-242). Acceptable fit was determined using the statistical analysis methodology provided by the CONTIN algorithm. The error of all methods was ±5% helicity.

Row | Molecule | ACTIVITY (%) LCAT [1] [%] | further results
1 | CC(C)C[C@H](NC(=O)[C@H](C)NC(=O)[C@H](CCC(=O)O)NC(=O)[C@H](CC(C)C)NC(=O)[C@H](CC(C)C)NC(=O)[C@H](CCC(=O)O)NC(=O)[C@H](CC(N)=O)NC(=O)[C@H](CC(C)C)NC(=O)[C@H](CC(C)C)NC(=O)[C@H](CCC(=O)O)NC(=O)[C@H](CCCNC(=N)N)NC(=O)[C@H](Cc1ccccc1)NC(=O)[C@H](CC(C)C)NC(=O)[C@H](CC(=O)O)NC(=O)[C@H](CC(C)C)NC(=O)[C@@H](NC(=O)[C@@H]1CCCN1)C(C)C)C(=O)N[C@@H](CCCCN)C(=O)N[C@@H](CCC(N)=O)C(=O)N[C@@H](CCCCN)C(=O)N[C@@H](CC(C)C)C(=O)N[C@@H](CCCCN)C(=O)O [compound 4] | 93 | He (%) TFE [2]: 94%; He (%) free [2]: 80%; He (%) SUVs [2]: 97%; He (%) mics [2]: 95%
2 | CC(C)C[C@H](NC(=O)[C@H](C)NC(=O)[C@H](CCC(=O)O)NC(=O)[C@H](CC(C)C)NC(=O)C(C)(C)NC(=O)[C@H](CCC(=O)O)NC(=O)[C@H](CC(N)=O)NC(=O)[C@H](CC(C)C)NC(=O)[C@H](CC(C)C)NC(=O)[C@H](CCC(=O)O)NC(=O)[C@H](CCCNC(=N)N)NC(=O)[C@H](Cc1ccccc1)NC(=O)[C@H](CC(C)C)NC(=O)[C@H](CC(=O)O)NC(=O)[C@H](CC(C)C)NC(=O)[C@@H](NC(=O)[C@@H]1CCCN1)C(C)C)C(=O)N[C@@H](CCCCN)C(=O)N[C@@H](CCC(N)=O)C(=O)N[C@@H](CCCCN)C(=O)N[C@@H](CC(C)C)C(=O)N[C@@H](CCCCN)C(=O)O [compound 6, PVLDLFRELLNEXLEALKQKLK] (H-PVLDLFRELLNE[Aib]LEALKQKLK-OH) | 80 | He (%) TFE [2]: 99%; He (%) free [2]: 57%; He (%) SUVs [2]: 70%; He (%) mics [2]: 93%
3 | CC(C)C[C@H](NC(=O)[C@H](C)NC(=O)[C@H](CCC(=O)O)NC(=O)[C@H](Cc1cccc2ccccc12)NC(=O)[C@H](CC(C)C)NC(=O)[C@H](CCC(=O)O)NC(=O)[C@H](CC(N)=O)NC(=O)[C@H](CC(C)C)NC(=O)[C@H](CC(C)C)NC(=O)[C@H](CCC(=O)O)NC(=O)[C@H](CCCNC(=N)N)NC(=O)[C@H](Cc1ccccc1)NC(=O)[C@H](CC(C)C)NC(=O)[C@H](CC(=O)O)NC(=O)[C@H](CC(C)C)NC(=O)[C@@H](NC(=O)[C@@H]1CCCN1)C(C)C)C(=O)N[C@@H](CCCCN)C(=O)N[C@@H](CCC(N)=O)C(=O)N[C@@H](CCCCN)C(=O)N[C@@H](CC(C)C)C(=O)N[C@@H](CCCCN)C(=O)O [compound 27, PVLDLFRELLNELZEALKQKLK] (H-PVLDLFRELLNEL[1Nal]EALKQKLK-OH) | 44 | He (%) TFE [2]: 81%; He (%) free [2]: 72%; He (%) SUVs [2]: 82%; He (%) mics [2]: 92%
4 | PVLDLFERLLNELLEALQKKLK [compound 80] | 9 | –
5 | PVLDLFKELLQELLEALKQKLK [compound 11] | 72 | –
6 | PVLDLFREGLNELLEALKQKLK [compound 20] | 57 | –
7 | PVLDLFREKLNEELEALKQKLK [compound 106] | 0 | –
8 | PVLDLFREKLNELLEALKQKLK [compound 33] | 33 | –
9 | PVLDLFRELLNEELEALKQKLK [compound 98] | 2 | –
10 | PVLDLFRELLNELLE [compound 97] | 4 | –
11 | PVLDLFRELLNELLEAGKQKLK [compound 12] | 70 | –
12 | PVLDLFRELLNELLEALKQKKK [compound 56] | 18 | –
13 | PVLDLFRELLNELLEGLKQKLK [compound 22] | 54 | –
14 | PVLDLFRELLNELLELLKQKLK [compound 127] | 47 | –
15 | PVLDLFRNLLEELLKALEQKLK [compound 57] | 18 | –
16 | PVLDLLRELLNELLEALKQKLK [compound 16] | 59 | –
17 | PVLEFFENLLERLLDALQKKLK [compound 157] | 30 | –
18 | PVLELFENLLEKLLDALQKKLK [compound 169] | 17 | –
19 | PVLELFENLLERLLELLNKKLK [compound 175] | 13 | –
20 | PVLELFENLLERWLDALQKKLK [compound 181] | 8 | –
21 | PVLELFERLLDELLNALQKKLK [compound 86] | 7 | –
22 | PVLELFKELLEELKQKLK [compound 216] | 35 | –
23 | PVLELFKELLQELLEALKQKLK [compound 17] | 59 | –
24 | PVLELFLNLLERLLDALQKKLK [compound 156] | 35 | –
25 | VLDLFRELLNEGLEALKQKLK [compound 47] | 23 | –
26 | VVLDLFRELLNELLEALKQKLK [compound 53] | 19 | –

Now from value to molecule, other results behind:

Row | ACTIVITY (%) LCAT [1] [%] | Molecule | further results
27 | 15 | PVLDLFDNLLDRLLDLLNKKLK [compound 173] | –
28 | 28 | PVLDLFENLLERLLDALQKKLK [compound 159] | –
29 | 8 | PVLDLFREGWEELKQKLK [compound 224] | –
30 | 83 | PVLDLFRELGNELLEALKQKLK [peptide 9] | –
31 | 53 | PVLDLFRELLNELLEALQKKLK [peptide 24] | –
32 | 24 | PVLDLFRELLNELWQKLK [compound 219] | –
33 | 8 | PVLELFDNLLDKLLDALQKKLR [compound 180] | –
34 | 9 | PVLELFDNLLEKLLEALQKKLR [compound 178] | –
35 | 8 | PVLELFDNLLERLLDALQKKLK [compound 179] | –
36 | 18 | PVLELFENGLERLLDALQKKLK [compound 167] | –
37 | 55 | PVLELFENLGERLLDALQKKLK [peptide 151] | –
38 | 16 | PVLELFENLLEKLLDLLQKKLK [compound 171] | –
39 | 7 | PVLELFENLLEKLLEALQKKLK [compound 182] | –
40 | 76 | PVLELFENLLERLFDALQKKLK [peptide 147] | –
41 | 23 | PVLELFENLLERLLDLLQKKLK [compound 165] | –
42 | 27 | PVLELFENLLERLLEALQKKLK [compound 161] | –
43 | 17 | PVLELFEQLLEKLLDALQKKLK [compound 168] | –
44 | 22 | PVLELFLNLLEKLLDALQKKLK [compound 166] | –
45 | 16 | PVLELFLNLLERLGDALQKKLK [compound 172] | –
46 | 4 | PVLELFLNLLERLLDAWQKKLK [compound 184] | –
47 | 30 | PVLELFLNLLERLLDWLQKKLK [compound 158] | –
48 | 38 | PVLELFLNLWERLLDALQKKLK [peptide 155] | –
49 | 11 | PVLELWENLLERLLDALQKKLK [compound 176] | –
